Molecular target: SARS-CoV-2 3CLpro (Severe acute respiratory syndrome coronavirus 2, UniProt P0DTD1)
Test: biochemical
Conditions: inhibition of SARS-CoV-2 3CLpro; 15 nM 3CLpro, 25 μM fluorogenic substrate, 37° C.; read-out: Inhibitory Activity (IC50)

SMILES	IC50
CNC(=O)c1cc(Br)cc([N+](=O)[O-])c1NC(C(C)C)C1CN(C(=O)c2cncc3ccccc23)C1 (stereo in doubt) [Compound 15, (R)-5-bromo-2-((1-(1-(isoquinoline-4-carbonyl)azetidin-3-yl)-2-methylpropyl)amino)-N-methyl-3-nitrobenzamide]	≥ 10000 nM
CNC(=O)c1cc(Br)cc([N+](=O)[O-])c1N[C@@H]1CCCC[C@@H]1NC(=O)c1cncnc1 [Compound 2, N-((1S, 2R)-2-((4-bromo-2-(methylcarbamoyl)-6-nitrophenyl)amino)cyclohexyl) pyrimidine-5-carboxamide]	≥ 10000 nM
CNC(=O)c1cc(Br)cc([N+](=O)[O-])c1N[C@@H]1CCCC[C@@H]1NC(=O)c1cncc(N)c1 [Compound 3, 5-amino-N-((1S, 2R)-2-((4-bromo-2-(methylcarbamoyl)-6-nitrophenyl)amino)cyclohexyl)nicotinamide]	1000 to 10000 nM
CNC(=O)c1cc(Br)cc([N+](=O)[O-])c1N[C@@H]1CCCC[C@@H]1NC(=O)c1cncc(OC)c1 [Compound 4, N-((1S, 2R)-2-((4-bromo-2-(methylcarbamoyl)-6-nitrophenyl)amino)cyclohexyl)-5-methoxynicotinamide]	1000 to 10000 nM
CNC(=O)c1cc(Br)cc([N+](=O)[O-])c1N[C@@H]1CCCC[C@@H]1NC(=O)c1cncc(CNC(=O)OC(C)(C)C)c1 [Compound 5, tert-butyl ((5-(((1S, 2R)-2-((4-bromo-2-(methylcarbamoyl)-6-nitrophenyl)amino)cyclohexyl)carbamoyl)pyridin-3-yl)methyl)carbamate]	≥ 10000 nM
CNC(=O)c1cc(Br)cc([N+](=O)[O-])c1N[C@@H]1CCCC[C@@H]1NC(=O)c1cncc(CN)c1 [Compound 6, 5-(aminomethyl)-N-((1S,2R)-2-((4-bromo-2-(methylcarbamoyl)-6-nitrophenyl)amino)cyclohexyl) nicotinamide]	≥ 10000 nM
CNC(=O)c1cc(Br)cc([N+](=O)[O-])c1N1CCC2(CN(C(=O)c3cncc4ccccc34)C2)C1 [Compound 10, 5-bromo-2-(2-(isoquinoline-4-carbonyl)-2,6-diazaspiro[3, 4]octan-6-yl)-N-methyl-3-nitrobenzamide]	≥ 10000 nM
CC(C)C(Nc1c(-c2nnc[nH]2)cc(Br)cc1[N+](=O)[O-])C1CN(C(=O)c2cncc3ccccc23)C1 (centres unmarked) [Compound 17, (3-(1-((4-bromo-2-nitro-6-(4H-1,2,4-triazol-3-yl)phenyl)amino)-2-methylpropyl)azetidin-1-yl)(isoquinolin-4-yl)methanone]	100 to 1000 nM
CNC(=O)c1cc(Br)cc([N+](=O)[O-])c1N[C@@H]1CCCCN(C(=O)c2cnc3ccccc3c2)C1 [Compound 20, (R)-5-bromo-N-methyl-3-nitro-2-((1-(quinoline-3-carbonyl)azepan-3-yl)amino)benzamide]	100 to 1000 nM
CNC(=O)c1cc(Br)cc([N+](=O)[O-])c1N1CCC2(CCN(C(=O)c3cncnc3)C2)C1 (centres unmarked) [Compound 21]	≥ 10000 nM
O=C(NC1CC(F)(F)C1)c1cc(Br)cc([N+](=O)[O-])c1N1CCC2(CCN(C(=O)c3cncc(C(F)(F)F)c3)C2)C1 (centres unmarked) [Compound 22, 5-bromo-N-(3,3-difluorocyclobutyl)-3-nitro-2-(7-(5-(trifluoromethyl)nicotinoyl)-2,7-diazaspiro[4.4]nonan-2-yl)benzamide]	1000 to 10000 nM
COc1cncc(C(=O)N2CCC3(CCN(c4c(C(=O)NC5CC(F)(F)C5)cc(Br)cc4[N+](=O)[O-])C3)C2)c1 (centres unmarked) [Compound 23, 5-bromo-N-(3,3-difluorocyclobutyl)-2-(7-(5-methoxynicotinoyl)-2,7-diazaspiro[4.4]nonan-2-yl)-3-nitrobenzamide]	1000 to 10000 nM
Cc1c(Cl)cncc1C(=O)N1CCC2(CCN(c3c(C(=O)NC4CC(F)(F)C4)cc(Br)cc3[N+](=O)[O-])C2)C1 (centres unmarked) [Compound 24, 5-bromo-2-(7-(5-chloro-4-methylnicotinoyl)-2,7-diazaspiro[4.4]nonan-2-yl)-N-(3,3-difluorocyclobutyl)-3-nitrobenzamide]	1000 to 10000 nM
CNC(=O)c1cc(Br)cc([N+](=O)[O-])c1N1CC[C@H](CNC(=O)c2cncc3ccccc23)C1 [Compound 25, (R)-N-((1-(4-bromo-2-(methylcarbamoyl)-6-nitrophenyl)pyrrolidin-3-yl)methyl)isoquinoline-4-carboxamide]	100 to 1000 nM
CNC(=O)c1cc(Br)cc([N+](=O)[O-])c1N[C@H]1CN(Cc2cncc3ccccc23)CCC1(F)F [Compound 32, (S)-5-bromo-2-((4,4-difluoro-1-(isoquinolin-4-ylmethyl)piperidin-3-yl)amino)-N-methyl-3-nitrobenzamide]	100 to 1000 nM
COC1CN(C(=O)c2cc(Br)cc([N+](=O)[O-])c2N[C@H]2CN(C(=O)c3cncc4ccccc34)CCC2(F)F)C1 [Compound 38, (S)-(5-bromo-2-((4,4-difluoro-1-(isoquinoline-4-carbonyl)piperidin-3-yl)amino)-3-nitrophenyl)(3-methoxyazetidin-1-yl)methanone]	< 100 nM
CNC(=O)c1cc(Br)cc([N+](=O)[O-])c1N[C@H]1CN(C(=O)c2cncc(-n3cccn3)c2)CCC1(F)F [Compound 39, (S)-2-((1-(5-(1H-pyrazol-1-yl)nicotinoyl)-4,4-difluoropiperidin-3-yl)amino)-5-bromo-N-methyl-3-nitrobenzamide]	100 to 1000 nM
NC(=O)c1cc(Br)cc([N+](=O)[O-])c1N[C@H]1CN(C(=O)c2cncc3ccccc23)CCC1(F)F [Compound 49, (S)-5-bromo-2-((4,4-difluoro-1-(isoquinoline-4-carbonyl)piperidin-3-yl)amino)-3-nitrobenzamide]	< 100 nM
CNC(=O)c1cc(Br)cc([N+](=O)[O-])c1N[C@H]1CN(C(=O)c2cncc3ccccc23)C[C@@H]1C [Compound 50, 5-bromo-2-[[(3R, 4S)-1-(isoquinoline-4-carbonyl)-4-methyl-pyrrolidin-3-yl]amino]-N-methyl-3-nitro-benzamide]	< 100 nM
COC(=O)c1cc(Br)cc([N+](=O)[O-])c1N[C@@H]1CCCC[C@@H]1NC(=O)c1cncc2ccccc12 [Compound 51, methyl 5-bromo-2-(((1R, 2S)-2-(isoquinoline-4-carboxamido)cyclohexyl)amino)-3-nitrobenzoate]	100 to 1000 nM
O=C(O)c1cc(Br)cc([N+](=O)[O-])c1N[C@@H]1CCCC[C@@H]1NC(=O)c1cncc2ccccc12 [Compound 52, 5-bromo-2-(((1R, 2S)-2-(isoquinoline-4-carboxamido)cyclohexyl)amino)-3-nitrobenzoic acid]	1000 to 10000 nM
NNC(=O)c1cc(Br)cc([N+](=O)[O-])c1N[C@@H]1CCCC[C@@H]1NC(=O)c1cncc2ccccc12 [Compound 54, N-((1S,2R)-2-((4-bromo-2-(hydrazinecarbonyl)-6-nitrophenyl)amino)cyclohexyl)isoquinoline-4-carboxamide]	1000 to 10000 nM
O=C(NC1CC(F)(F)C1)c1cc(Br)cc([N+](=O)[O-])c1N[C@@H]1CCCC[C@@H]1NC(=O)c1cncc2ccccc12 [Compound 56, N-((1S, 2R)-2-((4-bromo-2-((3,3-difluorocyclobutyl)carbamoyl)-6-nitrophenyl)amino)cyclohexyl)isoquinoline-4-carboxamide]	< 100 nM

— patent publication US20260315452A1, “PROTEASE INHIBITORS AND USES THEREOF” (priority 2023, published 2026)
